Data published in the supplement of paper PMC10307832.

Experiments:
Experiment in all cases: relative viability (nuclei count vs DMSO), 5 days (fraction); higher = more cells survive
[1] = compound: C1CC(C1)(C(=O)O)C(=O)O.[NH2-].[NH2-].[Pt+2] [Carboplatin] + Nc1ncn([C@H]2C[C@H](O)[C@@H](CO)O2)c(=O)n1 [Decitabine] (partner 2 µM)
How it was run: (§1)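 Lung cancer cell lines in 1536-well plates were dosed by pin tool the day after seeding, either with one drug alone or with a fixed anchor-drug dose plus five library-drug doses (not always all listed) in √10 steps. After 5 days, cells were fixed and their nuclei stained in one step (final 0.05% Triton X-100, 1% formaldehyde, 1 ug/ml Hoechst), then counted on 4× images. Relative viability is the nuclei count in treated wells divided by that in vehicle wells. Values are medians of duplicate plates.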

[2] = compound: C1CC(C1)(C(=O)O)C(=O)O.[NH2-].[NH2-].[Pt+2] [Carboplatin] + C[C@@H](Oc1cc(-c2cnn(C3CCNCC3)c2)cnc1N)c1c(Cl)ccc(F)c1Cl [Crizotinib] (partner 1 µM)
How it was run: as §1

[3] = compound: NS(=O)(=O)OC[C@@H]1C[C@@H](n2ccc3c(N[C@H]4CCc5ccccc54)ncnc32)C[C@@H]1O [MLN4924] + CC(C)C[C@H](NC(=O)[C@H](Cc1ccccc1)NC(=O)c1cnccn1)B(O)O [Bortezomib] (partner 0.002 µM)
How it was run: as §1

[4] = compound: C1CC(C1)(C(=O)O)C(=O)O.[NH2-].[NH2-].[Pt+2] [Carboplatin] + C[C@]1(O)C[C@@H](c2nc(-c3ccc4ccc(-c5ccccc5)nc4c3)c3c(N)nccn32)C1 [Linsitinib] (partner 1 µM)
How it was run: as §1

How did the relative viability ([1]; first compound 0.08 µM) turn out when NCI-H520 was run?
Its relative viability is 0.551.

What about the relative viability ([1]; first compound 0.253 µM) of the same cell line?
The relative viability was 0.545.

And the relative viability ([1]; first compound 0.8 µM)?
Its relative viability is 0.449.

What about the relative viability ([1]; first compound 2.53 µM) of the same cell line?
The relative viability was 0.457.

And the relative viability ([1]; first compound 8 µM)?
The relative viability was 0.438.

And the relative viability ([2]; first compound 0.08 µM)?
The relative viability was 0.943.

And the relative viability ([2]; first compound 0.253 µM)?
Its relative viability is 0.914.

What about the relative viability ([2]; first compound 0.8 µM) of the same cell line?
Its relative viability is 0.709.

What about the relative viability ([2]; first compound 2.53 µM) of the same cell line?
The relative viability was 0.576.

What about the relative viability ([2]; first compound 8 µM) of the same cell line?
Its relative viability is 0.601.

What about the relative viability ([3]; first compound 0.04 µM) of the same cell line?
Its relative viability is 0.424.

And the relative viability ([3]; first compound 0.1265 µM)?
Its relative viability is 0.272.

What about the relative viability ([3]; first compound 0.4 µM) of the same cell line?
Its relative viability is 0.341.

And the relative viability ([3]; first compound 1.265 µM)?
The relative viability was 0.131.

And the relative viability ([3]; first compound 4 µM)?
The relative viability was 0.141.

What about the relative viability ([4]; first compound 0.08 µM) of the same cell line?
Its relative viability is 0.997.

And the relative viability ([4]; first compound 0.253 µM)?
The relative viability was 1.09.

What about the relative viability ([4]; first compound 0.8 µM) of the same cell line?
The relative viability was 1.02.

What about the relative viability ([4]; first compound 2.53 µM) of the same cell line?
The relative viability was 0.943.

And the relative viability ([4]; first compound 8 µM)?
The relative viability was 0.784.

For NCI-H596, which relative viability ([1]; first compound 0.08 µM) is on record?
The relative viability was 1.16.

What about the relative viability ([1]; first compound 0.253 µM) of the same cell line?
The relative viability was 1.13.

And the relative viability ([1]; first compound 0.8 µM)?
The relative viability was 0.986.

What about the relative viability ([1]; first compound 2.53 µM) of the same cell line?
The relative viability was 0.958.

And the relative viability ([1]; first compound 8 µM)?
Its relative viability is 0.629.

What about the relative viability ([2]; first compound 0.08 µM) of the same cell line?
The relative viability was 0.895.

What about the relative viability ([2]; first compound 0.253 µM) of the same cell line?
The relative viability was 0.983.

And the relative viability ([2]; first compound 0.8 µM)?
Its relative viability is 0.834.

What about the relative viability ([2]; first compound 2.53 µM) of the same cell line?
The relative viability was 0.783.

And the relative viability ([2]; first compound 8 µM)?
The relative viability was 0.735.

And the relative viability ([3]; first compound 0.04 µM)?
Its relative viability is 1.08.

What about the relative viability ([3]; first compound 0.1265 µM) of the same cell line?
The relative viability was 1.02.

What about the relative viability ([3]; first compound 0.4 µM) of the same cell line?
The relative viability was 0.709.

And the relative viability ([3]; first compound 1.265 µM)?
Its relative viability is 0.885.

And the relative viability ([3]; first compound 4 µM)?
The relative viability was 0.974.

What about the relative viability ([4]; first compound 0.08 µM) of the same cell line?
The relative viability was 1.15.

And the relative viability ([4]; first compound 0.253 µM)?
The relative viability was 1.09.

And the relative viability ([4]; first compound 0.8 µM)?
The relative viability was 0.904.

What about the relative viability ([4]; first compound 2.53 µM) of the same cell line?
The relative viability was 0.809.

And the relative viability ([4]; first compound 8 µM)?
Its relative viability is 0.771.

Which relative viability ([1]; first compound 0.08 µM) does the source give for NCI-H647 here?
Its relative viability is 0.45.

What about the relative viability ([1]; first compound 0.253 µM) of the same cell line?
Its relative viability is 0.305.

What about the relative viability ([1]; first compound 0.8 µM) of the same cell line?
Its relative viability is 0.286.

What about the relative viability ([1]; first compound 2.53 µM) of the same cell line?
Its relative viability is 0.292.

What about the relative viability ([1]; first compound 8 µM) of the same cell line?
The relative viability was 0.306.

And the relative viability ([2]; first compound 0.08 µM)?
The relative viability was 1.11.

What about the relative viability ([2]; first compound 0.253 µM) of the same cell line?
Its relative viability is 1.04.

And the relative viability ([2]; first compound 0.8 µM)?
Its relative viability is 1.01.

What about the relative viability ([2]; first compound 2.53 µM) of the same cell line?
The relative viability was 1.11.

And the relative viability ([2]; first compound 8 µM)?
The relative viability was 0.632.

And the relative viability ([3]; first compound 0.04 µM)?
Its relative viability is 0.583.

What about the relative viability ([3]; first compound 0.1265 µM) of the same cell line?
The relative viability was 0.425.

What about the relative viability ([3]; first compound 0.4 µM) of the same cell line?
Its relative viability is 0.149.

What about the relative viability ([3]; first compound 1.265 µM) of the same cell line?
Its relative viability is 0.0614.

And the relative viability ([3]; first compound 4 µM)?
Its relative viability is 0.0695.

And the relative viability ([4]; first compound 0.08 µM)?
The relative viability was 1.41.

And the relative viability ([4]; first compound 0.253 µM)?
Its relative viability is 1.24.

What about the relative viability ([4]; first compound 0.8 µM) of the same cell line?
The relative viability was 1.11.

What about the relative viability ([4]; first compound 2.53 µM) of the same cell line?
Its relative viability is 0.932.

What about the relative viability ([4]; first compound 8 µM) of the same cell line?
Its relative viability is 0.503.

NCI-H650 was tested. Which relative viability ([1]; first compound 0.08 µM) did it give?
The relative viability was 0.308.

And the relative viability ([1]; first compound 0.253 µM)?
The relative viability was 0.329.

And the relative viability ([1]; first compound 0.8 µM)?
The relative viability was 0.344.

What about the relative viability ([1]; first compound 2.53 µM) of the same cell line?
The relative viability was 0.328.

What about the relative viability ([1]; first compound 8 µM) of the same cell line?
The relative viability was 0.246.

And the relative viability ([2]; first compound 0.08 µM)?
Its relative viability is 0.789.

What about the relative viability ([2]; first compound 0.253 µM) of the same cell line?
The relative viability was 0.697.

What about the relative viability ([2]; first compound 0.8 µM) of the same cell line?
The relative viability was 0.569.

What about the relative viability ([2]; first compound 2.53 µM) of the same cell line?
Its relative viability is 0.506.

And the relative viability ([2]; first compound 8 µM)?
Its relative viability is 0.567.

And the relative viability ([3]; first compound 0.04 µM)?
Its relative viability is 0.439.

And the relative viability ([3]; first compound 0.1265 µM)?
The relative viability was 0.456.

And the relative viability ([3]; first compound 0.4 µM)?
Its relative viability is 0.233.

What about the relative viability ([3]; first compound 1.265 µM) of the same cell line?
The relative viability was 0.179.

What about the relative viability ([3]; first compound 4 µM) of the same cell line?
The relative viability was 0.202.

And the relative viability ([4]; first compound 0.08 µM)?
The relative viability was 1.15.

And the relative viability ([4]; first compound 0.253 µM)?
The relative viability was 0.859.

What about the relative viability ([4]; first compound 0.8 µM) of the same cell line?
The relative viability was 0.982.

What about the relative viability ([4]; first compound 2.53 µM) of the same cell line?
The relative viability was 0.848.

And the relative viability ([4]; first compound 8 µM)?
The relative viability was 0.503.

Which results are given for NCI-H661?
relative viability ([1]; first compound 0.08 µM): 0.526; relative viability ([1]; first compound 0.253 µM): 0.577; relative viability ([1]; first compound 0.8 µM): 0.534; relative viability ([1]; first compound 2.53 µM): 0.521; relative viability ([1]; first compound 8 µM): 0.526; relative viability ([2]; first compound 0.08 µM): 1; relative viability ([2]; first compound 0.253 µM): 1.05; relative viability ([2]; first compound 0.8 µM): 0.98; relative viability ([2]; first compound 8 µM): 0.843; relative viability ([3]; first compound 0.04 µM): 0.872; relative viability ([3]; first compound 0.1265 µM): 0.904; relative viability ([3]; first compound 0.4 µM): 0.637; relative viability ([3]; first compound 1.265 µM): 0.29; relative viability ([3]; first compound 4 µM): 0.254; relative viability ([4]; first compound 0.08 µM): 0.555; relative viability ([4]; first compound 0.253 µM): 0.705; relative viability ([4]; first compound 0.8 µM): 0.529; relative viability ([4]; first compound 2.53 µM): 0.44; relative viability ([4]; first compound 8 µM): 0.541

What does the source list for NCI-H727?
relative viability ([1]; first compound 0.08 µM): 1.12; relative viability ([1]; first compound 0.253 µM): 0.956; relative viability ([1]; first compound 0.8 µM): 0.882; relative viability ([1]; first compound 2.53 µM): 0.935; relative viability ([1]; first compound 8 µM): 0.861; relative viability ([2]; first compound 0.08 µM): 0.988; relative viability ([2]; first compound 0.253 µM): 0.953; relative viability ([2]; first compound 0.8 µM): 0.704; relative viability ([2]; first compound 2.53 µM): 0.614; relative viability ([2]; first compound 8 µM): 0.317; relative viability ([3]; first compound 0.04 µM): 0.624; relative viability ([3]; first compound 0.1265 µM): 0.512; relative viability ([3]; first compound 0.4 µM): 0.313; relative viability ([3]; first compound 1.265 µM): 0.267; relative viability ([3]; first compound 4 µM): 0.225; relative viability ([4]; first compound 0.08 µM): 0.456; relative viability ([4]; first compound 0.253 µM): 0.298; relative viability ([4]; first compound 0.8 µM): 0.314; relative viability ([4]; first compound 2.53 µM): 0.347; relative viability ([4]; first compound 8 µM): 0.277

NCI-H838 was tested. Which relative viability ([1]; first compound 0.08 µM) did it give?
Its relative viability is 0.479.

And the relative viability ([1]; first compound 0.253 µM)?
The relative viability was 0.492.

And the relative viability ([1]; first compound 0.8 µM)?
The relative viability was 0.425.

What about the relative viability ([1]; first compound 2.53 µM) of the same cell line?
The relative viability was 0.412.

What about the relative viability ([1]; first compound 8 µM) of the same cell line?
The relative viability was 0.386.

What about the relative viability ([2]; first compound 0.08 µM) of the same cell line?
Its relative viability is 0.838.

What about the relative viability ([2]; first compound 0.253 µM) of the same cell line?
Its relative viability is 0.918.

And the relative viability ([2]; first compound 0.8 µM)?
The relative viability was 0.784.

And the relative viability ([2]; first compound 2.53 µM)?
Its relative viability is 0.861.

And the relative viability ([2]; first compound 8 µM)?
The relative viability was 0.797.

What about the relative viability ([3]; first compound 0.04 µM) of the same cell line?
The relative viability was 0.807.

And the relative viability ([3]; first compound 0.1265 µM)?
Its relative viability is 0.456.

What about the relative viability ([3]; first compound 0.4 µM) of the same cell line?
Its relative viability is 0.315.

What about the relative viability ([3]; first compound 1.265 µM) of the same cell line?
The relative viability was 0.0967.

What about the relative viability ([3]; first compound 4 µM) of the same cell line?
The relative viability was 0.122.

What about the relative viability ([4]; first compound 0.08 µM) of the same cell line?
The relative viability was 1.03.

And the relative viability ([4]; first compound 0.253 µM)?
Its relative viability is 1.09.

What about the relative viability ([4]; first compound 0.8 µM) of the same cell line?
Its relative viability is 0.961.

What about the relative viability ([4]; first compound 2.53 µM) of the same cell line?
The relative viability was 0.958.

What about the relative viability ([4]; first compound 8 µM) of the same cell line?
Its relative viability is 1.
